Data from ChEMBL document CHEMBL4219156, “Synthesis, evaluation and CoMFA/CoMSIA study of nitrofuranyl methyl N-heterocycles as novel antitubercular agents” (2018).
In brackets after ≈: the same amount, converted by molar mass.

System: Mycobacterium tuberculosis
Assay: Antitubercular activity against Mycobacterium tuberculosis H37Rv ATCC 27294 after 7 days by MABA
Format: functional
Parameters: -logMIC: unit not given here
Conditions: for MIC: Mycobacterium tuberculosis, H37Rv ATCC 27294, 168 h

`O=C(CN1CCN(Cc2ccc([N+](=O)[O-])o2)CC1)Oc1ccccc1` was tested. Which “-logMIC” value did it give?
Its value is 3.325.

What about the MIC of the same compound?
Its MIC is 0.473 µg/mL (≈ 1.37 µM).

With `COc1ccc2c(c1)CN(Cc1ccc([N+](=O)[O-])o1)CC2` as the compound, how does the “-logMIC” value read?
Its value is 3.918.

What about the MIC of the same compound?
Its MIC is 0.121 µg/mL (≈ 0.42 µM).

Which results are given for `COc1ccc(C2CCN(Cc3ccc([N+](=O)[O-])o3)CC2)cc1`?
-logMIC: 3.4; MIC: 0.398 µg/mL (≈ 1.26 µM)

Which results are given for `CC(C)(C)OC(=O)CN1CCN(Cc2ccc([N+](=O)[O-])o2)CC1`?
-logMIC: 2.514; MIC: 3.06 µg/mL (≈ 9.4 µM)

Which MIC does the source give for `O=C(C1CCCCC1)N1CC2CN(Cc3ccc([N+](=O)[O-])o3)CC2C1` (stereo not drawn) here?
The MIC was 7.68 µg/mL (≈ 22.1 µM).

How did the “-logMIC” value turn out when `O=[N+]([O-])c1ccc(CN2CCC(c3ccc(C(F)(F)F)cc3)CC2)o1` was run?
Its value is 2.609.

And the MIC?
Its MIC is 2.46 µg/mL (≈ 6.94 µM).

How did the “-logMIC” value turn out when `CC(C)(C)c1cccc(N2CCC3(CCN(Cc4ccc([N+](=O)[O-])o4)CC3)CC2)c1` was run?
The value was >4.796.

What about the MIC of the same compound?
The MIC was < 0.016 µg/mL.

Which results are given for `COc1ccc(CON=C2CCN(Cc3ccc([N+](=O)[O-])o3)CC2)cc1`?
-logMIC: 4.293; MIC: 0.051 µg/mL (≈ 0.142 µM)

With `CON=C1CCN(Cc2ccc([N+](=O)[O-])o2)CC1` as the compound, how does the “-logMIC” value read?
The value was 2.701.

And the MIC?
The MIC was 1.99 µg/mL (≈ 7.85 µM).

With `COc1ccc(S(=O)(=O)N2CC3CN(Cc4ccc([N+](=O)[O-])o4)CC3C2)cc1` (stereo not drawn) as the compound, how does the MIC read?
The MIC was 0.405 µg/mL (≈ 0.994 µM).

For `O=C(C1CCCCC1)N1CCN(Cc2ccc([N+](=O)[O-])o2)CC1`, which “-logMIC” value is on record?
Its value is 3.621.

And the MIC?
The MIC was 0.239 µg/mL (≈ 0.744 µM).

With `O=C(c1ccc(F)cc1)N1CCN(Cc2ccc([N+](=O)[O-])o2)CC1` as the compound, how does the “-logMIC” value read?
The value was 2.779.

And the MIC?
The MIC was 1.66 µg/mL (≈ 4.99 µM).

What does the source list for `O=[N+]([O-])c1ccc(CN2CCc3ccc(Br)cc3C2)o1`?
-logMIC: 4.206; MIC: 0.062 µg/mL (≈ 0.184 µM)

`O=C(C1CCCCC1)N1CCC2(CCN(Cc3ccc([N+](=O)[O-])o3)CC2)CC1` was tested. Which MIC did it give?
The MIC was 3.87 µg/mL (≈ 9.93 µM).

For `O=[N+]([O-])c1ccc(CN2CCNCC2)o1`, which “-logMIC” value is on record?
The value was 3.616.

What about the MIC of the same compound?
Its MIC is 0.242 µg/mL (≈ 1.15 µM).

What does the source list for `O=C(CN1CCN(Cc2ccc([N+](=O)[O-])o2)CC1)Nc1ccccc1`?
-logMIC: 1.99; MIC: 10.2 µg/mL (≈ 29.7 µM)

With `O=[N+]([O-])c1ccc(CN2CCC(=NOCc3ccccc3)CC2)o1` as the compound, how does the “-logMIC” value read?
The value was 3.608.

And the MIC?
Its MIC is 0.247 µg/mL (≈ 0.75 µM).

How did the “-logMIC” value turn out when `COc1ccc(C(=O)N2CCN(Cc3ccc([N+](=O)[O-])o3)CC2)cc1` was run?
The value was 3.408.

What about the MIC of the same compound?
Its MIC is 0.391 µg/mL (≈ 1.13 µM).

Which MIC does the source give for `CC(=O)N1CCC2(CCN(Cc3ccc([N+](=O)[O-])o3)CC2)CC1` here?
The MIC was 32 µg/mL (≈ 99.6 µM).

With `O=[N+]([O-])c1ccc(CN2CCC(=NOCc3ccc(C(F)(F)F)cc3)CC2)o1` as the compound, how does the “-logMIC” value read?
Its value is 3.673.

And the MIC?
Its MIC is 0.212 µg/mL (≈ 0.534 µM).

`O=[N+]([O-])c1ccc(CN2Cc3ccccc3C2)o1` was tested. Which “-logMIC” value did it give?
The value was 2.749.

What about the MIC of the same compound?
Its MIC is 1.78 µg/mL (≈ 7.3 µM).

Which “-logMIC” value does the source give for `CN(C)C(=O)CN1CCN(Cc2ccc([N+](=O)[O-])o2)CC1` here?
The value was 1.516.

What about the MIC of the same compound?
Its MIC is 30.5 µg/mL (≈ 103 µM).

`O=[N+]([O-])c1ccc(CN2Cc3ccc(F)cc3C2)o1` was tested. Which “-logMIC” value did it give?
The value was 3.31.

What about the MIC of the same compound?
The MIC was 0.49 µg/mL (≈ 1.87 µM).

Which MIC does the source give for `CC(C)(C)c1ccc(S(=O)(=O)N2CC3CN(Cc4ccc([N+](=O)[O-])o4)CC3C2)cc1` (stereo not drawn) here?
The MIC was 0.126 µg/mL (≈ 0.291 µM).

What does the source list for `O=[N+]([O-])c1ccc(CN2CCC(c3ccc(F)cc3)CC2)o1`?
-logMIC: 3.337; MIC: 0.46 µg/mL (≈ 1.51 µM)

Which “-logMIC” value does the source give for `N#Cc1ccc2c(c1)CN(Cc1ccc([N+](=O)[O-])o1)CC2` here?
Its value is 3.988.

And the MIC?
The MIC was 0.103 µg/mL (≈ 0.364 µM).

Which “-logMIC” value does the source give for `CC(C)(C)c1ccc(N2CCN(Cc3ccc([N+](=O)[O-])o3)CC2)cc1` here?
Its value is 4.796.

And the MIC?
Its MIC is 0.016 µg/mL (≈ 0.0466 µM).

For `N#Cc1ccc2c(c1)CN(Cc1ccc([N+](=O)[O-])o1)C2`, which “-logMIC” value is on record?
Its value is 3.766.

What about the MIC of the same compound?
Its MIC is 0.171 µg/mL (≈ 0.635 µM).

Which “-logMIC” value does the source give for `O=[N+]([O-])c1ccc(CN2CCC3(CC2)CCN(S(=O)(=O)c2ccc(Cl)cc2)CC3)o1` here?
Its value is 4.51.

And the MIC?
Its MIC is 0.031 µg/mL (≈ 0.0683 µM).

What does the source list for `CCC(C)C(=O)N1CCN(Cc2ccc([N+](=O)[O-])o2)CC1` (stereo not drawn)?
-logMIC: 3.303; MIC: 3.09 µg/mL (≈ 10.5 µM)

`CC(=O)N1CCN(Cc2ccc([N+](=O)[O-])o2)CC1` was tested. Which “-logMIC” value did it give?
The value was 1.922.

What about the MIC of the same compound?
The MIC was 12 µg/mL (≈ 47.3 µM).

Which “-logMIC” value does the source give for `CCON=C1CCN(Cc2ccc([N+](=O)[O-])o2)CC1` here?
The value was 3.029.

What about the MIC of the same compound?
The MIC was 0.935 µg/mL (≈ 3.5 µM).

With `O=[N+]([O-])c1ccc(CN2CCC(c3ccc(OC(F)(F)F)cc3)CC2)o1` as the compound, how does the “-logMIC” value read?
Its value is 3.303.

What about the MIC of the same compound?
Its MIC is 0.497 µg/mL (≈ 1.34 µM).

Which results are given for `CCOC(=O)CN1CCN(Cc2ccc([N+](=O)[O-])o2)CC1`?
-logMIC: 2.414; MIC: 3.85 µg/mL (≈ 13 µM)

For `O=[N+]([O-])c1ccc(CN2CCC(c3ccc(Br)cc3)CC2)o1`, which “-logMIC” value is on record?
The value was 3.31.

What about the MIC of the same compound?
The MIC was 0.49 µg/mL (≈ 1.34 µM).

Which “-logMIC” value does the source give for `CC(C)(C)c1ccc(N2CCC3(CCN(Cc4ccc([N+](=O)[O-])o4)CC3)CC2)cc1` here?
The value was >4.796.

What about the MIC of the same compound?
The MIC was < 0.016 µg/mL.

Which results are given for `CC(=O)CN1CCN(Cc2ccc([N+](=O)[O-])o2)CC1`?
-logMIC: 2.117; MIC: 7.63 µg/mL (≈ 28.6 µM)

How did the MIC turn out when `O=[N+]([O-])c1ccc(S(=O)(=O)N2CC3CN(Cc4ccc([N+](=O)[O-])o4)CC3C2)cc1` (stereo not drawn) was run?
Its MIC is 0.235 µg/mL (≈ 0.556 µM).

With `CC(C)(C)C(=O)N1CC2CN(Cc3ccc([N+](=O)[O-])o3)CC2C1` (stereo not drawn) as the compound, how does the MIC read?
The MIC was 1.55 µg/mL (≈ 4.81 µM).

How did the “-logMIC” value turn out when `CC(C)(C)C(=O)N1CCN(Cc2ccc([N+](=O)[O-])o2)CC1` was run?
Its value is 3.023.

And the MIC?
Its MIC is 0.948 µg/mL (≈ 3.21 µM).

Which “-logMIC” value does the source give for `O=C(c1ccccc1)N1CCN(Cc2ccc([N+](=O)[O-])o2)CC1` here?
Its value is 2.733.

What about the MIC of the same compound?
Its MIC is 1.85 µg/mL (≈ 5.86 µM).

With `O=[N+]([O-])c1ccc(CN2CC3CN(S(=O)(=O)c4ccc(C(F)(F)F)cc4)CC3C2)o1` (stereo not drawn) as the compound, how does the MIC read?
The MIC was 0.123 µg/mL (≈ 0.276 µM).

With `CC(C)CC(=O)N1CCN(Cc2ccc([N+](=O)[O-])o2)CC1` as the compound, how does the “-logMIC” value read?
The value was 2.51.

What about the MIC of the same compound?
Its MIC is 0.498 µg/mL (≈ 1.69 µM).

For `NNC(=O)c1ccncc1` [ISONIAZID], which MIC is on record?
Its MIC is 0.038 µg/mL (≈ 0.277 µM).

Which MIC does the source give for `CC(C)CC(=O)N1CCC2(CCN(Cc3ccc([N+](=O)[O-])o3)CC2)CC1` here?
The MIC was 2.41 µg/mL (≈ 6.63 µM).

Which MIC does the source give for `CC(=O)CCN1CC2CN(Cc3ccc([N+](=O)[O-])o3)CC2C1` (stereo not drawn) here?
The MIC was 32 µg/mL (≈ 104 µM).

For `O=[N+]([O-])c1ccc(CN2CCc3ccc(Cl)cc3C2)o1`, which “-logMIC” value is on record?
Its value is 3.962.

What about the MIC of the same compound?
The MIC was 0.109 µg/mL (≈ 0.372 µM).

Which results are given for `O=[N+]([O-])c1ccc(CON=C2CCN(Cc3ccc([N+](=O)[O-])o3)CC2)cc1`?
-logMIC: 3.742; MIC: 0.181 µg/mL (≈ 0.484 µM)

With `CO[C@H]1/C=C/O[C@@]2(C)Oc3c(C)c(O)c4c(O)c(c(/C=N/N5CCN(C)CC5)c(O)c4c3C2=O)NC(=O)/C(C)=C\C=C\[C@H](C)[C@H](O)[C@@H](C)[C@@H](O)[C@@H](C)[C@H](OC(C)=O)[C@@H]1C` [RIFAMPIN] as the compound, how does the MIC read?
Its MIC is 0.127 µg/mL (≈ 0.154 µM).

`CNc1ccc(C(=O)N2CCN(Cc3ccc([N+](=O)[O-])o3)CC2)cc1` was tested. Which “-logMIC” value did it give?
The value was 3.315.

What about the MIC of the same compound?
The MIC was 0.484 µg/mL (≈ 1.41 µM).
